The values below come from US11459586B2, “Methods for increasing efficiency of nuclease-mediated gene editing in stem cells” (President and Fellows of Harvard College, priority 2016, dated 2022).

In data set [1] the test system is hiPSC. The experiment in a line: toxicity of chemical inhibitors added to hiPSC culture after nucleofection. The procedure: Plasmids were purified using the plasmid DNA purification kit sold under the trademark Qiagen ENDOFREE® Plasmid Maxi kit and nucleofected into iPSC cells using the Lonza 4D-Nucleofector X unit (Buffer P3, Program CB-150). For each 20 μl nucleofection reaction, 0.2-0.5×106 iPSC were transfected with up to 4 μg of plasmid DNA. Post-nucleofection, iPSC were plated onto solubilized basement membrane matrix secreted by Engelbreth-Holm-Swarm (EHS) mouse sarcoma cells sold under the trademark […]®-coated wells containing feeder-free cell culture medium sold under the trademark MTESR1™ media with 10 μM Y-27632 plus other chemical inhibitors when noted. Later experiments included 50 μM zVAD-fmk (Bachem) for 1 day and 10 μM SB203580 (Biovision) for 4-5 days post transfection (see FIGS. 5, 6, 11, and 12). For FIG. 6 (ssODN transfection), 200 ng/ml recombinant B 18R (eBioscience), was also added to the culture for 5 days post transfection.
The following inhibitors were added to the hiPSC culture at the concentrations and time periods indicated in the Examples below. • 1. p53 or Bax inhibitors: cyclic pifithrin α (StemCell Technologies); pifithrin (Tocris); peptide V5, peptide control, iMAC1 and iMAC2 (EMD Millipore); N-acetyl cysteine and 4-hydroxy TEMPO (TEMPOL) (Sigma). • 2. […]

The subject of data set [2] is human iPSC. Briefly: gene targeting (mThy1, mCD147) in hiPSC transiently transfected with Cas9-IRES-anti-apoptotic gene plasmids. In kind it is cell-based. The following applies: Cas9 Bcl-2 sgRNA plasmids, transient transfection. How it is done: FIGS. 4A-D. Bcl-2 overexpression increases HR-mediated gene targeting in human iPSC when transiently transfected with the Cas9 nuclease. FIG. 4A. Mouse Thy1 gene targeting scheme. FIG. 4B. Plasmids were constructed to constitutively express Cas9 together with an anti-apoptotic gene (separated by an IRES) under the constitutively active EF1α promoter. Plain human iPSC were nucleofected with 0.5 μg of one of these Cas9 plasmids together with 2 μg of the mThy1 targeting vector and 1.5 μg of plasmids expressing the Thy1 Left, Right, both, or no sgRNAs (pUC19). Five days later, cells were analyzed by flow cytometry. FIG. 4C. Flow cytometry staining for mThy1 and hThy1 for the Cas9 only sample gated on live single cells; the percent of cells in each quadrant is indicated. […] FIG. 4D. Compiled gene editing frequencies. The percent of mThy1^+hThy1^− (bottom portion of each bar in the left, center, and right grafts), mThy1^+hThy1^+ (top portion of bars in the left and center graphs), and mThy1^−hThy1^− (top portion of bars in the right graph) cells is graphed for each indicated sample. Lines mark the percentages for the Cas9 only sample. Results are representative of two independent experiments.
FIGS. 8A-F. Wild type Bcl-2 improves gene targeting at various genomic loci across multiple hiPSC lines. FIG. 8A. Plasmids were constructed to constitutively express the Cas9 nuclease with a form of Bcl-2 (separated by an IRES), and a sgRNA. Three human iPSC lines were nucleofected with 2 μg of mThy1 or mCD147 targeting vector and 2 μg of “Cas9 sgRNA” or “Cas9 Bcl-2 sgRNA” expression plasmid. 5-9 days later, cells were analyzed by flow cytometry. FIG. 8B. Mouse Thy1 gene targeting scheme. FIG. 8C. Single amino acid mutations were generated for the Bcl-2 BH1 (G145A) or BH4 (Y28A) domains. Compiled gene editing frequencies for cells transfected with the Left, Right, or Both Thy1 sgRNAs. The percent of mThy1^+hThy1^− (bottom portion of each set of bars in each graph), mThy1^+hThy1^+ (top portion of left and center sets of bars in each graph and center portion of right set of bars in each graph), and mThy1^−hThy1^− (top portion of right set of bars in each graph) cells among the various samples is indicated. FIG. 8D. Mouse CD147 gene targeting scheme. FIG. 8E. Flow cytometry staining for mCD147 and hCD147 for retrovirally-derived PGP1 hiPSC transfected with “Cas9 sgRNA” or “Cas9 Bcl-2 sgRNA”. Samples are gated on live single cells; the percent of cells in each quadrant is indicated. FIG. 8F. Compiled gene editing frequencies for cells transfected with the Left, Right, or both CD147 sgRNAs. The percent of mCD147^+hCD147^− (bottom portion of each set of bars in each graph), mCD147^+hCD147^+ (top portion of left and center sets of bars in each graph and center portion of right set of bars in each graph), and mCD147^−hCD147^− (top portion of right set of bars in each graph) cells among the three hiPSC lines is indicated.
PCR reactions were done using polymerase sold under the trademark KAPA HIFI™ HotStart polymerase; primers and double-stranded DNA fragments sold under the trademark GBLOCKS® are from IDT. Plasmids were constructed using isothermal assembly, transformed into Stbl3 competent E. coli (Invitrogen), grown at 30° C., and verified by Sanger sequencing (Genewiz). Anti-apoptotic genes were obtained from previously published plasmids: Bcl-2 (Addgene plasmid #8793) and Bcl-xL (#8790) (Cheng et al., 2001); Bcl2A1 (#36973) (Pratt et al., 2012); and Mcl-1 (#21605) (Maurer et al., 2006). The dominant negative p53 sequence from Addgene plasmid #9058 (Hahn et al., 2002) was synthesized as a gBlock. These genes were cloned into the EF1α promoter-Cas9 nuclease plasmid after an IRES.
The U6 promoter-sgRNA (for each sgRNA sequence) was cloned into the EF1α promoter-Cas9 nuclease or EF1α promoter-Cas9 nuclease-IRES-Bcl-2 expression plasmids to form the “Cas9 only sgRNA” or “Cas9 Bcl-2 sgRNA” plasmids used in Examples 6 and 7. […]

Data set [3] deals with human iPSC. Briefly: mThy1 gene targeting in hiPSC co-transfected with DNA repair or viral inhibitor genes. In kind it is cell-based. The following applies: 0.5 μg plasmid overexpressing the DNA repair gene; 50 μM zVAD and 10 μM SB203580 post transfection (FIG. 9E). The procedure:
FIGS. 9A-G. Effects of chemical and genetic inhibitors on mThy1 gene targeting in hiPSC. FIG. 9A. Mouse Thy1 gene targeting scheme. Human iPSC were nucleofected with the mThy1 targeting vector system plasmids and analyzed by flow cytometry five days later. The percentages of mThy1^+hThy1^−, mThy1^+hThy1^+, and mThy1^−hThy1^− cells for each sample (gated on live single cells) are graphed. Lines mark the percentage values for the control sample. FIGS. 9B-9D. Human iPSC were nucleofected with: 2 μg mThy1 targeting vector; 0.5 μg Cas9 plasmid; and 1.5 μg of sgRNA plasmids. The sample was divided into multiple wells and cultured in plain media (mTeSR1+10 μM Y-27632 ROCK inhibitor) supplemented with the indicated chemical inhibitor for three days. 20 μM pifithrin α, 200 μM peptide V5 (VPMLK, SEQ ID NO:31), 200 μM peptide control (IPMIK, SEQ ID NO:32), 50 μM TEMPOL, or the indicated concentrations of SCR7 or L755507 were used. FIG. 9B, mThy1^+hThy1^− (bottom portion of each bar in each graph), mThy1^+hThy1^+ (top portion of each bar in each graph). FIG. 9C, mThy1^+hThy1^− (bottom portion of each bar in each graph), mThy1^+hThy1^+ (top portion of each bar in left and center graphs, middle portion of each bar in right graph), and mThy1^−hThy1^− (top portion of each bar in right graph). […]

Consider `C[C@H]1CCC/C=C/[C@@H]2C[C@H](O)C[C@H]2[C@H](O)/C=C/C(=O)O1` [Brefeldin A], for which, in data set [1] (PGP1 hiPSC, 0.1 μM, data not shown), the “toxicity to hiPSC” value is given as “toxic”.

For the compound “Y28A: Bcl-2 with Y28A mutation in the BH4 domain”, in data set [2], the “mThy1 gene targeting, wild type vs mutant Bcl-2” value is “intermediate levels of gene targeting”.

Turning to `CC(=O)N[C@@H](CS)C(=O)O` [N-acetyl cysteine], in data set [1] (1-5 mM), the “toxicity to hiPSC” value is reported as “toxicity”.

For the compound “BRCA1: principal HR mediator, overexpressed from plasmid”, the “mThy1 gene targeting efficiency” value in data set [3] was “did not improve mThy1 gene targeting efficiency”.

For the compound “BRCA2: principal HR mediator, overexpressed from plasmid”, in data set [3], the “mThy1 gene targeting efficiency” value is “did not improve mThy1 gene targeting efficiency”.

Turning to “G145A: Bcl-2 with G145A mutation in the BH1 domain, prevents interaction with Bax”, the “mThy1 gene targeting, wild type vs mutant Bcl-2” value in data set [2] was “intermediate levels of gene targeting”.
